# Where two headings read alike, the source gives them in different places.
# Columns and labels:
# honeybee larvae = assay: LPC tolerance in non-infected artificially reared larvae, mortality until day 12; type: in vivo, Apis mellifera; conditions: LPC 10 μg/larva on day 1, 2 and 3, no spores, replicates separated by /, Nlarvae 70/48/47/48/40
# Pl-infected larvae = assay: In vivo effect of LPC on Pl-infected larvae; design: species or system Apis mellifera; conditions: LPC 10 μg/larva on day 1, 2 and 3 + 50 spores/larva (ERIC II, strain 233/00) on day 1, replicates separated by /, Nlarvae 71/48/48
# Protocol: First instar larvae were transferred into plastic queen cups and fed the following diets: On the first day 10 μL of diet containing 6% glucose, 6% fructose, 1% yeast extract and 50% royal jelly were fed. Test substances (1-O-oleoyl-sn-glycero-3-phosphocholine (oleoyl-LPC), stearic acid, lysophosphatidylinositol and linoleic acid) were added to the first diet in amounts of 0.5 to 10 μg/larvae. For infection with spores of Paenibacillus larvae, larvae were grafted into 5 μL of diet containing test substances and subsequently 5 μL of diet with about 50 added Pl spores were given. Larvae were not fed on the second day to assure the consumption of the given diet. On the third day 20 μL of diet containing 7.5% glucose, 7.5% fructose, 1.5% yeast extract and 50% royal jelly were fed. Amounts of 30, 40 and 60 μL of diet composed of 9% glucose, 9% fructose, 2% yeast extract and 50% royal jelly were fed on the 4th, 5th and 6th day (method modified after Aupinel et al. [Aupinel et al. 2005. Bull Insectol 58:107-111]. Larvae were incubated at 34.5° C. and 95% relative humidity which was reduced to 80% on day 7. The mortality was checked daily for the first 7 days and when individuals emerged from queen cups at day 18 after the transfer into cups. To reduce the time for sporulation of Pl in the lab for security reasons, infection tests with Pl spores were stopped at day 7 with some experiments extend to day 12.
# In vivo effect of LPC on Pl-infected larvae: Artificial larval rearing was performed as described above. Larvae were individually infected with a dose of c. 50 spores/larva (ERIC II, strain 233/00) given on the first day. LPC was administered on day 1, 2 and 3 in a dose of 10 μg/d. Mortality was checked daily until d 12.
# [1] = test system: Paenibacillus larvae (Eric II test strain); assay: Inhibition zone test on Columbia agar; type: cell-based; conditions: Paenibacillus larvae, 24 h, 34.5° C.
# Protocol: (§1) As test organisms, several different strains of Paenibacillus larvae were used.
# (§2) Overnight cultures of the vegetative forms of bacteria were prepared in BHI (brain heart infusion) liquid medium.
# For the inhibition zone test, 500 μL of overnight culture were added to 15-20 mL of Columbia agar, mixed and poured onto a petri dish. After the agar solidified, either punched wholes are filled with different amounts of test compounds or test compounds are pipetted on paper discs (5 mm Ø). The plate is then incubated for 24 h (34.5° C.) and zones of inhibition are measured and given in mm. Lactic acid and penicillin G were used as positive controls.
# E II—Eric II (test strain of Pl)
# [2] = test system: spores of Paenibacillus larvae; assay: Spore assay in BHI liquid medium with plating for CFU; type: cell-based; conditions: lowest investigated dose (5 ppm); 114.6±28.4 spores per vial; 4 and 6 days
# Protocol: A stock solution containing spores at a known concentration is used to inoculate c. 100 spores/mL medium. This assay is carried out in 20 mL cultivation tubes containing 1.0 mL of BHI (brain heart infusion) liquid medium. To this medium containing c. […] spores, test compounds are added at different concentrations (e.g., 2, 5 and 10 ppm), together with positive control (penicillin G at 5 ppm) and blank control.
# To verify inoculation with c. 100 spores/mL, tubes containing BHI+spores are plated out immediately on agar plates to assess the number of colony forming units (CFU) after 6 days of incubation at 34.5° C.
# For the control of viability of the spores, the turbidity (due to germination of spores and formation of vegetative forms) of tubes containing BHI+spores is evaluated on day 4.
# For the test probes, bacterial growth is evaluated on day 4 and 6. For those tubes which are negative for bacterial growth, the whole medium (c. 1 mL) is plated onto agar plates and evaluated for CFUs after 2 and 6 days of incubation. CFUs visible after two days result from vegetative forms, while CFUs appearing after […] stem from spores.
# The results of these tests allow identifying whether the tested compounds have an effect on spore germination in liquid medium and the viability of the spores as assessed by their germination on agar plates. […]
# Paenibacillus larvae = assay: Antimicrobial assay in BHI liquid medium, vegetative forms of Paenibacillus larvae (MIC); type: cell-based; conditions: for MIC: Paenibacillus larvae
# Protocol: For the evaluation of certain fatty acids and phospholipids, overnight cultures of vegetative forms of Pl were used (for results see Table 1.1).
# as §1, §2
# From these overnight cultures, an inoculum of 50 μl is added to 1.0 ml of BHI liquid medium to perform the bacterial test in liquid medium. The compound 1-O-oleoyl-sn-glycero-3-phosphocholine (oleoyl-LPC) together with a positive control was then added at concentrations of 2, 5 and 10 ppm and the test tubes were incubated for 24 h at 34.5° C. Then, the extinction of the solution was measured photometrically.
smiles,measurement,setting,value
CCCCCCCC/C=C\CCCCCCCC(=O)OC[C@@H](O)COP(=O)([O-])OCC[N+](C)(C)C [1-O-oleoyl-sn-glycero-3-phosphocholine],Ndead larvae total,honeybee larvae; days 1-12,9/6/5/3/3
same,Ndead larvae day 1,honeybee larvae,0/0/0/0/0
same,Ndead larvae day 2,honeybee larvae,0/2/0/0/0
same,Ndead larvae day 3,honeybee larvae,0/0/3/0/0
same,Ndead larvae day 4,honeybee larvae,1/0/1/0/1
same,Ndead larvae day 5,honeybee larvae,0/0/0/0/0
same,Ndead larvae day 6,honeybee larvae,1/1/0/0/1
same,Ndead larvae day 7,honeybee larvae,0/0/1/0/0
same,Ndead larvae day 8,honeybee larvae,2/0/0/0/0
same,Ndead larvae day 9,honeybee larvae,1/2/0/3/0
same,Ndead larvae day 10,honeybee larvae,2/0/0/0/0
same,Ndead larvae day 11,honeybee larvae,0/1/0/0/1
same,Ndead larvae day 12,honeybee larvae,2/0/0/0/0
same,Ndead larvae total,Pl-infected larvae; days 1-12,26/12/14
same,Ndead larvae day 1,Pl-infected larvae,0/0/0
same,Ndead larvae day 2,Pl-infected larvae,1/0/0
same,Ndead larvae day 3,Pl-infected larvae,3/2/4
same,Ndead larvae day 4,Pl-infected larvae,11/5/8
same,Ndead larvae day 5,Pl-infected larvae,7/2/0
same,Ndead larvae day 6,Pl-infected larvae,1/1/1
same,Ndead larvae day 7,Pl-infected larvae,1/1/0
same,Ndead larvae day 8,Pl-infected larvae,0/0/1
same,Ndead larvae day 9,Pl-infected larvae,0/0/0
same,Ndead larvae day 10,Pl-infected larvae,2/0/0
same,Ndead larvae day 11,Pl-infected larvae,0/1/0
same,Ndead larvae day 12,Pl-infected larvae,0/0/0
same,zone of inhibition at 5 µg/disc,[1]; amount 5 μg,3.5 mm
same,zone of inhibition at 10 µg/disc,[1]; amount 10 μg,5 mm
same,killing of vegetative forms upon germination of spores,[2],all vegetative forms are killed
same,MIC,"Paenibacillus larvae; 24 h, vegetative forms of Pl, liquid medium, read-out: MIC (ppm)",2 to 5 µg/mL
same,MIC,"Paenibacillus larvae; in vitro, read-out: in vitro Pl inhibitory activity, MIC",2.5 µg/mL
same,MIC,"Paenibacillus larvae; vegetative forms of Pl, liquid medium, read-out: MIC",> 3.8 µM
same,inhibitory / antibacterial activity against Pl (in words),Paenibacillus larvae; in vitro,good in vitro Pl inhibitory activity

# From patent US9993492B2, “Lysophospholipids and lysophospholipid analogues against honeybee brood diseases” (University of Graz, priority 2013, dated 2018)
